Laboratory results reported in US20250311727A1, “SUBSTITUTED 2-AMINOAZINES AND SALTS THEREOF, AND USE THEREOF AS HERBICIDAL ACTIVE SUBSTANCES” (BAYER AKTIENGESELLSCHAFT, priority 2022, published 2025).

Tests used:
Type in all cases: in vivo
Poa annua [1] = experiment: Pre-emergence herbicide efficacy at 320 g/ha, POAAN; conditions: scored visually after about 3 weeks vs untreated controls, 100% = plants have died
How it was run: (§1)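 Compound formulated as wettable powder or emulsion concentrate is applied onto covered, sown sandy loam soil with 0.5% additive. Plants grow under greenhouse conditions, and after roughly 3 weeks weed control is rated by eye as a percentage relative to untreated pots.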

Echinochloa crus-galli [2] = experiment: Pre-emergence herbicide efficacy at 320 g/ha, ECHCG; conditions: scored visually after about 3 weeks vs untreated controls, 100% = plants have died
How it was run: as §1

Veronica persica [3] = experiment: Post-emergence herbicidal efficacy at 320 g/ha, VERPE; conditions: rated visually after about 3 weeks vs untreated controls, 100% = plants have died
How it was run: (§2)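 Weeds grown from seed in sandy loam in the greenhouse were sprayed at the one-leaf stage, 2 to 3 weeks after sowing. WP or EC formulations were applied as aqueous spray with 0.5% additive at 600 L/ha. Injury was scored visually about 3 weeks later against untreated controls (0% = like control, 100% = dead).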

Setaria viridis [4] = experiment: Pre-emergence herbicide efficacy at 80 g/ha, SETVI
How it was run: (§3)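 Compounds are applied to soil covering sown seeds (aqueous suspension or emulsion, 0.5% additive, 600 l/ha), before emergence. Pots stay in the greenhouse for about 3 weeks. Damage is then judged by eye as % of control, 100% meaning plant death.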

Stellaria media [5] = experiment: Post-emergence herbicidal efficacy at 320 g/ha, STEME; conditions: rated visually after about 3 weeks vs untreated controls, 100% = plants have died
How it was run: as §2

Kochia scoparia [6] = experiment: Pre-emergence herbicide efficacy at 320 g/ha, KCHSC; conditions: scored visually after about 3 weeks vs untreated controls, 100% = plants have died
How it was run: as §1

Amaranthus retroflexus [7] = experiment: Pre-emergence herbicide efficacy at 320 g/ha, AMARE; conditions: scored visually after about 3 weeks vs untreated controls, 100% = plants have died
How it was run: as §1

Echinochloa crus-galli [8] = experiment: Post-emergence herbicidal efficacy at 320 g/ha, ECHCG; conditions: rated visually after about 3 weeks vs untreated controls, 100% = plants have died
How it was run: as §2

Veronica persica [9] = experiment: Pre-emergence herbicide efficacy at 80 g/ha, VERPE
From the text: (§4) Unwanted plants/weeds: • ABUTH: Abutilon theophrasti • ALOMY: Alopecurus myosuroides • AMARE: Amaranthus retroflexus • DIGSA: Digitaria sanguinalis • ECHCG: Echinochloa crus-galli • KCHSC: Kochia scoparia • LOLRI: Lolium rigidum • MATIN: Matricaria inodora • POAAN: Poa annua • POLCO: Polygonum convolvulus • SETVI: Setaria viridis • STEME: Stellaria media • VERPE: Veronica persica • VIOTR: Viola tricolor A. Post-Emergence Herbicidal Efficacy at 320 g/ha
(§5) Seeds of monocotyledonous and dicotyledonous weed plants and crop plants were placed in plastic or organic planting pots and covered with soil. The compounds of the invention, formulated in the form of wettable powders (WP) or as emulsion concentrates (EC), were then applied to the surface of the covering soil as aqueous suspension or emulsion with addition of 0.5% additive at a water application rate equivalent to 600 l/ha. After the treatment, the pots were placed in a greenhouse and kept under good growth conditions for the test plants. After about 3 weeks, the efficacy of the preparations was scored visually in comparison with untreated controls as percentages. For example, 100% activity=the plants have died, 0% activity=like control plants.
(§6) Tables D1 to D12 below show the effects of selected compounds of the general formula (I) according to Table 1 on various harmful plants and an application rate corresponding to 80 g/ha, which were obtained by the experimental procedure mentioned above.

Abutilon theophrasti [10] = experiment: Post-emergence herbicidal efficacy at 320 g/ha, ABUTH; conditions: rated visually after about 3 weeks vs untreated controls, 100% = plants have died
How it was run: as §2

Digitaria sanguinalis [11] = experiment: Post-emergence herbicidal efficacy at 320 g/ha, DIGSA; conditions: rated visually after about 3 weeks vs untreated controls, 100% = plants have died
How it was run: as §2

Stellaria media [12] = experiment: Pre-emergence herbicide efficacy at 320 g/ha, STEME; conditions: scored visually after about 3 weeks vs untreated controls, 100% = plants have died
How it was run: as §1

Digitaria sanguinalis [13] = experiment: Pre-emergence herbicide efficacy at 320 g/ha, DIGSA; conditions: scored visually after about 3 weeks vs untreated controls, 100% = plants have died
How it was run: as §1

Kochia scoparia [14] = experiment: Post-emergence herbicidal efficacy at 320 g/ha, KCHSC; conditions: rated visually after about 3 weeks vs untreated controls, 100% = plants have died
How it was run: as §2

Lolium rigidum = experiment: Pre-emergence herbicide efficacy at 320 g/ha, LOLRI; conditions: scored visually after about 3 weeks vs untreated controls, 100% = plants have died
From the text: as §4
(§7) Seeds of mono- and dicotyledonous weed plants were placed in plastic pots in sandy loam soil (doubly sown with one species each of mono- or dicotyledonous weed plants per pot) and covered with soil. The compounds of the invention, formulated in the form of wettable powders (WP) or as emulsion concentrates (EC), were then applied to the surface of the covering soil as aqueous suspension or emulsion with addition of 0.5% additive at a water application rate of 600 litres per hectare (converted). After the treatment, the pots were placed in a greenhouse and kept under good growth conditions for the test plants. After about 3 weeks, the efficacy of the preparations was scored visually in comparison with untreated controls as percentages.
(§8) For example, 100% activity=the plants have died, 0% activity=like control plants.
(§9) Tables C1 to C12 below show the effects of selected compounds of the general formula (I) according to Table 1 on various harmful plants and at an application rate corresponding to 320 g/ha, which were obtained by the trial procedure specified above.

Kochia scoparia [15] = experiment: Pre-emergence herbicide efficacy at 80 g/ha, KCHSC; conditions: scored visually after about 3 weeks vs untreated controls, 100% = plants have died
From the text: as §4, §5, §6

Setaria viridis [16] = experiment: Post-emergence herbicidal efficacy at 320 g/ha, SETVI; conditions: rated visually after about 3 weeks vs untreated controls, 100% = plants have died
From the text: as §4
Seeds of mono- and dicotyledonous weed plants were placed in plastic pots in sandy loam soil (doubly sown with in each case one species of mono- or dicotyledonous weed plants per pot), covered with soil and cultivated in a greenhouse under controlled growth conditions. 2 to 3 weeks after sowing, the test plants were treated at the one-leaf stage. The compounds of the invention, formulated in the form of wettable powders (WP) or as emulsion concentrates (EC), were applied to the green parts of the plants as aqueous suspension or emulsion with addition of 0.5% additive at a water application rate equivalent to 600 litres per hectare. After the test plants had been kept in the greenhouse under optimum growth conditions for about 3 weeks, the activity of the preparations was rated visually in comparison to untreated controls.
as §8
Tables A1 to A10 below show the effects of selected compounds of the general formula (I) according to Table 1 on various harmful plants and at an application rate corresponding to 320 g/ha, which were obtained by the trial procedure specified above.

Digitaria sanguinalis [17] = experiment: Pre-emergence herbicide efficacy at 80 g/ha, DIGSA; conditions: scored visually after about 3 weeks vs untreated controls, 100% = plants have died
From the text: as §4, §5, §6

Abutilon theophrasti [18] = experiment: Pre-emergence herbicide efficacy at 320 g/ha, ABUTH; conditions: scored visually after about 3 weeks vs untreated controls, 100% = plants have died
How it was run: as §1

Polygonum convolvulus = experiment: Pre-emergence herbicide efficacy at 80 g/ha, POLCO; conditions: scored visually after about 3 weeks vs untreated controls, 100% = plants have died
From the text: as §4, §5, §6

Amaranthus retroflexus [19] = experiment: Pre-emergence herbicide efficacy at 80 g/ha, AMARE; conditions: scored visually after about 3 weeks vs untreated controls, 100% = plants have died
How it was run: as §3

Matricaria inodora = experiment: Pre-emergence herbicide efficacy at 320 g/ha, MATIN; conditions: scored visually after about 3 weeks vs untreated controls, 100% = plants have died
From the text: as §4, §7, §8, §9

Setaria viridis [20] = experiment: Pre-emergence herbicide efficacy at 320 g/ha, SETVI; conditions: scored visually after about 3 weeks vs untreated controls, 100% = plants have died
How it was run: as §1

Veronica persica [21] = experiment: Pre-emergence herbicide efficacy at 320 g/ha, VERPE; conditions: scored visually after about 3 weeks vs untreated controls, 100% = plants have died
How it was run: as §1

Viola tricolor [22] = experiment: Post-emergence herbicidal efficacy at 80 g/ha, VIOTR; conditions: rated visually after about 3 weeks vs untreated controls, 100% = plants have died
From the text: as §4
Seeds of monocotyledonous and dicotyledonous weeds and crop plants were placed in sandy loam in plastic or organic planting pots, covered with soil and cultivated in a greenhouse under controlled growth conditions. 2 to 3 weeks after sowing, the test plants were treated at the one-leaf stage. The compounds of the invention, formulated in the form of wettable powders (WP) or as emulsion concentrates (EC), were then sprayed onto the green parts of the plants as aqueous suspension or emulsion with addition of 0.5% additive at a water application rate of 600 l/ha (converted). After the test plants had been kept in the greenhouse under optimum growth conditions for about 3 weeks, the activity of the preparations was rated visually in comparison to untreated controls. For example, 100% activity=the plants have died, 0% activity=like control plants.
Tables B1 to B11 below show the effects of selected compounds of the general formula (I) according to Table 1 on various harmful plants and an application rate corresponding to 80 g/ha, which were obtained by the experimental procedure mentioned above.

Amaranthus retroflexus [23] = experiment: Post-emergence herbicidal efficacy at 320 g/ha, AMARE; conditions: rated visually after about 3 weeks vs untreated controls, 100% = plants have died
How it was run: as §2

Viola tricolor [24] = experiment: Pre-emergence herbicide efficacy at 80 g/ha, VIOTR
How it was run: as §3

Kochia scoparia [25] = experiment: Post-emergence herbicidal efficacy at 80 g/ha, KCHSC; conditions: rated visually after about 3 weeks vs untreated controls, 100% = plants have died
How it was run: (§10)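 Post-emergence greenhouse test: one-leaf weeds sprayed with formulated compound (0.5% additive, 600 l/ha), visually rated about 3 weeks later against untreated controls.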

Poa annua [26] = experiment: Post-emergence herbicidal efficacy at 320 g/ha, POAAN; conditions: rated visually after about 3 weeks vs untreated controls, 100% = plants have died
How it was run: as §2

Veronica persica [27] = experiment: Post-emergence herbicidal efficacy at 80 g/ha, VERPE; conditions: rated visually after about 3 weeks vs untreated controls, 100% = plants have died
How it was run: as §10

Amaranthus retroflexus [28] = experiment: Post-emergence herbicidal efficacy at 80 g/ha, AMARE; conditions: rated visually after about 3 weeks vs untreated controls, 100% = plants have died
How it was run: as §10

With `N#Cc1cccc(Nc2ncc(Cl)cn2)c1-n1cc(C(F)(F)F)cn1` [Example 1-38, 3-(5-Chloropyrimidin-2-ylamino)-2-(4-(trifluoromethyl)-1H-pyrazol-1-yl)benzonitrile] the “Pre-emergence efficacy at 320 g/ha against POAAN in %” value (Poa annua [1]) was 100%, the “Pre-emergence efficacy at 320 g/ha against ECHCG in %” value (Echinochloa crus-galli [2]) was 90% and the “Post-emergence efficacy at 320 g/ha against VERPE in %” value (Veronica persica [3]) was 100%. The “Pre-emergence efficacy against SETVI” value (Setaria viridis [4]) was 100%, the “Post-emergence efficacy at 320 g/ha against STEME in %” value (Stellaria media [5]) was 100% and the “Pre-emergence efficacy at 320 g/ha against KCHSC in %” value (Kochia scoparia [6]) was 90%. For the same compound, the “Pre-emergence efficacy at 320 g/ha against AMARE in %” value (Amaranthus retroflexus [7]) was 100%, the “Post-emergence efficacy at 320 g/ha against ECHCG in %” value (Echinochloa crus-galli [8]) was 100% and the “Pre-emergence efficacy against VERPE” value (Veronica persica [9]) was 90%. For the same compound, the “Post-emergence efficacy at 320 g/ha against ABUTH in %” value (Abutilon theophrasti [10]) was 90%, the “Post-emergence efficacy at 320 g/ha against DIGSA in %” value (Digitaria sanguinalis [11]) was 90% and the “Pre-emergence efficacy at 320 g/ha against STEME in %” value (Stellaria media [12]) was 100%. For the same compound, the “Pre-emergence efficacy at 320 g/ha against DIGSA in %” value (Digitaria sanguinalis [13]) was 100%, the “Post-emergence efficacy at 320 g/ha against KCHSC in %” value (Kochia scoparia [14]) was 100% and the “Pre-emergence efficacy at 320 g/ha against LOLRI in %” value (Lolium rigidum) was 90%. For the same compound, the “Pre-emergence efficacy at 80 g/ha against KCHSC in %” value (Kochia scoparia [15]) was 100%, the “Post-emergence efficacy at 320 g/ha against SETVI in %” value (Setaria viridis [16]) was 90% and the “Pre-emergence efficacy at 80 g/ha against DIGSA in %” value (Digitaria sanguinalis [17]) was 100%. For the same compound, the “Pre-emergence efficacy at 320 g/ha against ABUTH in %” value (Abutilon theophrasti [18]) was 90%, the “Pre-emergence efficacy at 80 g/ha against POLCO in %” value (Polygonum convolvulus) was 100% and the “Pre-emergence efficacy at 80 g/ha against AMARE in %” value (Amaranthus retroflexus [19]) was 100%. The “Pre-emergence efficacy at 320 g/ha against MATIN in %” value (Matricaria inodora) was 100%, the “Pre-emergence efficacy at 320 g/ha against SETVI in %” value (Setaria viridis [20]) was 100% and the “Pre-emergence efficacy at 320 g/ha against VERPE in %” value (Veronica persica [21]) was 100%. For the same compound, the “Post-emergence efficacy at 80 g/ha against VIOTR in %” value (Viola tricolor [22]) was 100%, the “Post-emergence efficacy at 320 g/ha against AMARE in %” value (Amaranthus retroflexus [23]) was 100% and the “Pre-emergence efficacy against VIOTR” value (Viola tricolor [24]) was 100%. The “Post-emergence efficacy at 80 g/ha against KCHSC in %” value (Kochia scoparia [25]) was 100%, the “Post-emergence efficacy at 320 g/ha against POAAN in %” value (Poa annua [26]) was 90% and the “Post-emergence efficacy at 80 g/ha against VERPE in %” value (Veronica persica [27]) was 90%. The “Post-emergence efficacy at 80 g/ha against AMARE in %” value (Amaranthus retroflexus [28]) was 100%.
